The results in this text go back to patent US8309582B2, “Small molecule Bcl-Xl/Bcl-2 binding inhibitors” (The Ohio State University Research Foundation, priority 2004, dated 2012).

The nature of assay [1]: WB (IC50 for WB, Tables 1-9). The note with it: marker, cell line and unit inferred. In kind it is cell-based. On the procedure: (§1) Immunoblotting. Cells in T-75 flasks were collected by scraping, and suspended in 60 μl of phosphate-buffered saline (PBS). Two μl of the suspension was taken for protein analysis using the Bradford assay kit (Bio-Rad, Hercules, Calif.). To the remaining solution was added the same volume of 2×SDS-PAGE sample loading buffer (100 mM Tris-HCl, pH 6.8, 4% SDS, 5% β-mercaptoethanol 20% glycerol, and 0.1% bromophenol blue). The mixture was sonicated briefly, and boiled for 5 min. Equal amounts of proteins were loaded onto 10% SDS-PAGE gels.
(§2) After electrophoresis, protein bands were transferred to nitrocellulose membranes in a semidry transfer cell. The transblotted membrane was washed twice with Tris-buffered saline (TBS) containing 0.1% Tween 20 (TBST). After blocking with TBST containing 5% nonfat milk for 40 min, the membrane was incubated with the appropriate primary antibody in TBST-1% nonfat milk at 4° C. overnight. All primary antibodies were diluted 1:1000 in 1% nonfat milk-containing TBST. After treatment with the primary antibody, the membrane was washed three times with TBST for a total of 15 min, followed by incubation with goat anti-rabbit or anti-mouse IgG-horseradish peroxidase conjugates (diluted 1:5000) for 1 h at room temperature and three washes with TBST for a total of 1 h. The immunoblots were visualized by enhanced chemiluminescence.

The target of a further assay is T1, Bcl-xL (Homo sapiens, UniProt Q07817).
T1 construct: fused on or other part: His tag
The assay is described as follows: Competitive fluorescence polarization assay, displacement of Flu-BakBH3 peptide from Bcl-xL. The conditions noted are these: inhibition of Bak BH3 peptide binding to Bcl-xL, FP; read-out: IC50 Bcl-xl/Bak. In kind it is binding. On the procedure:
(§3) Competitive Fluorescence Polarization Assay. The binding affinity of the test agent to Bcl-2 and Bcl-xL was analyzed by a competitive fluorescence polarization assay, in which the ability of the agent to displace the binding of a Bak BH3-domain peptide to either Bcl-2 or Bcl-xL was determined. Flu-BakBH3, a Bak-BH3 peptide labeled at the N-terminus with fluorescein, was purchased from Genemed Synthesis (San Francisco, Calif.). C-Terminal-truncated, His-tagged Bcl-xL was purchased from EMD Biosciences (San Diego, Calif.), and soluble GST-fused Bcl-2 was obtained from Santa Cruz (Santa Cruz, Calif.). The KD determination was carried out in a dual-pathlength quartz cell with readings taken at […] at room temperature using a luminescence spectrometer according to an established procedure (17). Determination of IC50 values. Data from cell viability and FP assays were analyzed by using the CalcuSyn software (Biosoft, Ferguson, Mo.) to determine IC50 values, in which the calculation was based on the medium effect equation (18), i.e., Log(fa/fu)=m log(D)−m log(Dm) (equation 1), where fa and fu denote fraction affected and unaffected, respectively; m represents the Hill-type coefficient signifying the sigmoidicity of the dose-effect curve; D and Dm are the dose used and IC50, respectively.
For orientation: Polarisation of emitted light reports the rotation of a fluorescent probe.

Another assay concerns the target Bcl-2 (Homo sapiens, UniProt P10415). In words: Competitive fluorescence polarization assay, displacement of Flu-BakBH3 peptide from Bcl-2. In kind it is binding. The conditions noted are these: inhibition of Bak BH3 peptide binding to Bcl-2, FP; read-out: IC50 Bcl-2/Bak. On the procedure: as §3
For another assay, the system named is PC-3 cells. In words: Cell viability analysis (MTT) in PC-3 cells. The class given is cell-based. The note with it: Homo sapiens, PC-3, PC-3 cells, read-out: IC50 (μM) PC3. On the procedure:
Cell viability analysis. The effect of individual test agents on cell viability was assessed by using the MTT {[3-(4,5-dimethylthiazol-2-yl)-2,5-diphenyl-2H-tetrazolium bromide]} assay in six to twelve replicates. […] Controls received DMSO vehicle at a concentration equal to that in drug-treated cells. […] Supernatants were removed from the wells, and the reduced MTT dye was solubilized in 200 μl/well DMSO. Absorbance at 570 nm was determined on a plate reader.
(§4) Determination of IC50 values. Data from cell viability and FP assays were analyzed by using the CalcuSyn software (Biosoft, Ferguson, Mo.) to determine IC50 values, in which the calculation was based on the medium effect equation (18), i.e., Log(fa/fu)=m log(D)−m log(Dm) (equation 1), where fa and fu denote fraction affected and unaffected, respectively; m represents the Hill-type coefficient signifying the sigmoidicity of the dose-effect curve; D and Dm are the dose used and IC50, respectively.

The test system of a further assay is LNCaP cells. The assay is described as follows: Cell viability analysis (MTT) in LNCaP cells. In kind it is cell-based. The conditions noted are these: Homo sapiens. On the procedure:
Cell viability analysis. The effect of individual test agents on cell viability was assessed by using the MTT {[3-(4,5-dimethylthiazol-2-yl)-2,5-diphenyl-2H-tetrazolium bromide]} assay in six to twelve replicates. Cells were seeded and incubated in 96-well, flat-bottomed plates in serum-free media for 24 h, and were exposed to various concentrations of test agents dissolved in DMSO (final concentration, 0.1%) in serum-free RPMI 1640 medium for different time intervals. Controls received DMSO vehicle at a concentration equal to that in drug-treated cells. The medium was removed, replaced by 200 μl of 0.5 mg/ml of MTT in 10% FBS-containing RPMI-1640 medium, and cells were incubated in the CO2 incubator at 37° C. for 2 h. Supernatants were removed from the wells, and the reduced MTT dye was solubilized in 200 μl/well DMSO. Absorbance at 570 nm was determined on a plate reader.
as §4

For a further assay, the target named is T2, PPARγ (Homo sapiens, UniProt P37231).
T2 construct: endogenous in cells; host or cells: PC-3 prostate cancer cells
T2 sequence (P37231 1-505): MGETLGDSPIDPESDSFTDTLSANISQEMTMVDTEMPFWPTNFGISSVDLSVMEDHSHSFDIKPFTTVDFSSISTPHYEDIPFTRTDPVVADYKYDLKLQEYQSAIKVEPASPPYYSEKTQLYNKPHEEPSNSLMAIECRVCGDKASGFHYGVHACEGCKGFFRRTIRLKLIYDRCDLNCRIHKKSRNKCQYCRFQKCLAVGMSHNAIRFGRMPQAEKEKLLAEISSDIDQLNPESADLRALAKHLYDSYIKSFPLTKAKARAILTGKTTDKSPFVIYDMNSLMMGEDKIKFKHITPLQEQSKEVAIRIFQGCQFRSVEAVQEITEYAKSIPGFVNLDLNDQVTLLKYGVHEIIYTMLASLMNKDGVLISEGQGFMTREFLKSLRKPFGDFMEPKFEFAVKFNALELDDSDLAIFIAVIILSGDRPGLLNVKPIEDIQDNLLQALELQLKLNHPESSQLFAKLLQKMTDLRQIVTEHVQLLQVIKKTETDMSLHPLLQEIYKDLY
The assay is described as follows: Analysis of PPARγ activation (transcription factor ELISA, PC-3 nuclear extracts). The note with it: PC-3 cells, 10 μM, 48 h, versus DMSO vehicle. In kind it is cell-based. On the procedure: Analysis of PPARγ activation. The analysis was carried out by using a PPARγ transcription factor ELISA kit (Active Motif, Carlsbad, Calif.), in which an oligonucleotide containing the peroxisome proliferator response element (PPRE) was immobilized onto a 96-well plate. PPARs contained in nuclear extracts bind specifically to this oligonucleotide and are detected through an antibody directed against PPARγ. […] Cells were collected, and nuclear extracts were prepared with a Nuclear Extract kit (Active Motif, Carlsbad, Calif.). Nuclear extracts of the same protein concentration from individual treatments were subject to the PPARγ transcription factor ELISA according to the manufacturer's instruction.
On the technique in general: An ELISA detects its analyte on a solid surface through an enzyme-linked reagent.

A further assay has as its target T3, Bcl-2/Bak (Homo sapiens, UniProt P10415).
T3 construct: endogenous in cells; host or cells: PC-3 prostate cancer cells
In words: Co-immunoprecipitation of Bak with Bcl-2 in PC-3 cells. The class given is cell-based. The note with it: 50 μM, 12 h, compared to DMSO control. On the procedure:
(§5) Co-immunoprecipitation. […] After centrifugation at 13000×g for 15 min, the supernatants were collected, pre-incubated with protein A-Sepharose (Sigma, St. Louis, Mo.) for 15 min, and centrifuged at 1000×g for 5 min. The supernatants were exposed to Bcl-2 or Bcl-xL antibodies in the presence of protein A-Sepharose at 4° C. for 2 h. After brief centrifugation, protein A-Sepharose were collected, washed with the aforementioned lysis buffer 2 times, suspended in 2×SDS sample buffer, and subjected to Western blot analysis with antibodies against Bak.

In the next assay the target is T4, Bcl-xL/Bak (Homo sapiens, UniProt Q07817).
T4 construct: endogenous in cells; host or cells: PC-3 prostate cancer cells
The assay is described as follows: Co-immunoprecipitation of Bak with Bcl-xL in PC-3 cells. The class given is cell-based. The conditions noted are these: 50 μM, 12 h, compared to DMSO control. On the procedure:
as §5

The subject of the next assay is caspase-9. The assay is described as follows: Caspase-9 activation in PC-3 cells (Western blot). The class given is cell-based. The conditions noted are these: 24 h. On the procedure:
as §1, §2
In general terms: Immunoblotting shows a protein as a band on a membrane.

T4 sequence (Q07817 whole entry): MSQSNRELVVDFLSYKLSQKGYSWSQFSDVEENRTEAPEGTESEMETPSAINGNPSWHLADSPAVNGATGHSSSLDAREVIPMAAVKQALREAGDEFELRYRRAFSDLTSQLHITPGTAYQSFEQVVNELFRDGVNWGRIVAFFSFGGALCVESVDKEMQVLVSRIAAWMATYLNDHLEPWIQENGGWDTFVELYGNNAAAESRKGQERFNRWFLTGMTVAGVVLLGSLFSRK
T1 sequence (Q07817 1-209 limits assumed): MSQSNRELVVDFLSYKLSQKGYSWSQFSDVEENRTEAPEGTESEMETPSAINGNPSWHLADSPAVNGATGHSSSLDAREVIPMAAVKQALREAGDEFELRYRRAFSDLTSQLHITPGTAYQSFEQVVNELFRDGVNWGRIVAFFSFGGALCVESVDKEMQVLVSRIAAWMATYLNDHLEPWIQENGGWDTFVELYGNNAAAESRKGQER
Chain of Bcl-2 (P10415 whole entry): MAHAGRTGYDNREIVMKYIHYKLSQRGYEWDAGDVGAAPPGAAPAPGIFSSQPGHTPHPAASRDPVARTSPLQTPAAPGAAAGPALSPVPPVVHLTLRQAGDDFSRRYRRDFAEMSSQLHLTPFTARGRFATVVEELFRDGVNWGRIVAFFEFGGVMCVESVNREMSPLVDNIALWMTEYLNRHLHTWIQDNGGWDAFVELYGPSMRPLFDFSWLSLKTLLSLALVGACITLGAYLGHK
T3 sequence (P10415 whole entry): as above

`Cc1c(C)c2c(c(C)c1O)CCC(C)(COc1ccc(/C=C3\SC(=O)NC3=O)cc1)O2` (stereo not drawn) [Δ2-TG, 5-[4-(6-hydroxy-2,5,7,8-tetramethyl-chroman-2-ylmethoxy)-benzylidene]-2,4-thiazolidine-dione]: the IC50 in assay [1] stood at 22 µM; at Bcl-xL, 18 ± 1 µM; at Bcl-2 it was 18 ± 1 µM; with PC-3 cells, 20 ± 2 µM; in the assay on LNCaP cells, 14 ± 1 µM. Moreover, at PPARγ, the “activity in PPARγ activation” value is reported as “completely devoid of the ligand binding activity”. Moreover, at Bcl-2/Bak, the “level of Bak associated with Bcl-2” value was “significantly reduced”. Also, at Bcl-xL/Bak, the “level of Bak associated with Bcl-xL” value is “significantly reduced”. In the assay with caspase-9, the caspase-9 activation entry was “dose-dependent”.
